Patent publication US20240009271A1, “METHODS OF TREATING METASTATIC CANCERS USING AXL DECOY RECEPTORS” (Aravive Inc, priority 2017, published 2024)

Test system: MDA-MB-231 Axl+ TNBC cells
Experiment: MDA-MB-231 Matrigel cell invasion assay
Assay type: cell-based
Conditions: Homo sapiens
Experimental: Inhibition of GAS6-induced invasion/migration was evaluated in models for triple-negative breast (MDA-MB-231) and ovarian (OVCAR8) cancers using the Corning® Matrigel® or collagen invasion assays, respectively, and using an AXL decoy receptor which comprises a soluble AXL variant polypeptide comprising amino acid changes relative to wild-type AXL sequence (SEQ ID NO:1) at the following positions: (a) glycine 32; (b) aspartic acid 87; (c) alanine 72; (d) valine 92; and (e) glycine 127, lacking the AXL transmembrane domain, lacking a functional FN domain, and comprising an Fc domain linked to the soluble AXL variant polypeptide by a peptide linker (hereinafter referred to as AVB-S6-500).
AVB-S6-500 and MDA-MB-231 Axl^+ TNBC cells in serum free media were seeded in the top of a Matrigel-coated Boyden Chamber. Media with serum as a chemo-attractant was added to the chamber bottom. After 24 hours incubation, the number of cells that migrated across the Matrigel were counted and expressed as the fraction of invasive cells relative to a PBS control (FIG. 1A).
Representative images from the AVB-S6-500 treated MDA-MB-231 cells are depicted in FIG. 2.

- IC50: 24 nM
Structure (SMILES): COc1cc(Nc2c(C#N)cnc3cc(OCCCN4CCN(C)CC4)c(OC)cc23)c(Cl)cc1Cl [Bosutinib, bosutinib]
